Results on 21 molecules are retold here after PMC6268135, “Synthesis and 5α-Reductase Inhibitory Activity of C21 Steroids Having 1,4-diene or 4,6-diene 20-ones and 4-Azasteroid 20-Oximes” (Molecules, 2011).

pIC50: −log10 of the molar value. Like-named read-outs stand apart in the source and are kept apart here.

For series [1], the target named is testosterone 5α-reductase prepared from rat prostates. As to the kind of experiment: Testosterone 5α-reductase assay ([1,2,6,7-3H]testosterone as substrate).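 Also: conversion of tritiated testosterone to 5α-dihydrotestosterone, separated by TLC and scintillation counted, relative to enzyme control without test sample after subtracting substrate blank without enzyme.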
Protocol: Since the rat prostate extracts for measuring testosterone 5α-reductase inhibition were used in a neutral pH buffer, both isozymes were assayed in this study due to differences in its biochemical properties.
The enzyme suspension of testosterone 5α-reductase was prepared from the homogenate of the ventral prostate of male Sprague-Dawley rats using the methods previously reported [32]. Testosterone 5α-reductase inhibition was measured according to the methods previously reported [32]. A brief description follows: Sprague-Dawley male rats 7-8 weeks old were sacrificed by diethyl ether, and the ventral prostates were excised and minced with a pair of scissors. The prostates were homogenized with a glass-glass homogenizer in medium A (0.32 M sucrose, 0.1 mM dithiothreitol and 20 mM sodium phosphate, pH 6.5) to about 20% (w/v). The homogenate was filtered over 8 layers of surgical gauze, and centrifuged at 3,000 × g for 15 min. The resulting pellets were resuspended in medium A to about 25% (w/v) by triturating the suspension sequentially through an 18-gauge and then a 20-gauge needle. The assay mixture containing the test sample in ethanol (10 μL), reaction solution [525 μL, 1 mM dithiothreitol, 40 mM sodium phosphate (pH 6.5), 50 µM NADPH and 2.2 mM [1,2,6,7-^3H]testosterone, 3.15-3.89 TBq/mmol, PerkinElmer (Waltham, MA, USA)] and the enzyme suspension prepared above (40 μL), was incubated at 37°C for 1 h. After extraction with ethyl acetate (1 mL), a sample of the ethyl acetate phase (50 μL) was chromatographed on a silica plastic sheet (Kieselgel 60 F254, Merck KGaA (Darmstadt, Germany)) using the developing solvent system ethyl acetate-cyclohexane (1:1). Each of the testosterone and 5α-dihydrotestosterone areas was cut from the sheet. The ^3H radioactivity of each fragment was counted in 5 mL of Aquasol-2 (PerkinElmer) with a liquid scintillation counter [LS 6500, Beckman Coulter (Brea, CA, USA)]. Testosterone 5α-reductase inhibitory activity was calculated as follows:
where DHT and T are the ^3H radioactivity recovered in the areas of 5α-dihydrotestosterone and testosterone, respectively. rsample and rcontrol are reaction rates of the test sample and the enzyme control in which reaction rates are measured in the presence and absence of test sample, respectively, and rblank is reaction rate of the substrate blank in which reaction rate is measured in the absence of test sample and enzyme suspension. IC50 was calculated from the inhibitory activity values at several concentrations using linear regression analysis. Each enzyme reaction was carried out in duplicate.
The mark [2] stands for this setting: read-out: IC50 (5α-reductase inhibitory activity), rat prostatic testosterone 5α-reductase.
Setting [3] is: read-out: IC50 (testosterone 5α-reductase inhibitory activity), rat ventral prostate enzyme suspension, pH 6.5, 37°C, 1 h, both type 1 and type 2 isozymes.
[4] abbreviates: rat prostatic testosterone 5α-reductase.

By melting point is commonly meant the temperature, or range, at which the solid turns liquid. Molecule `CC(=NO)[C@H]1CC[C@H]2[C@@H]3C=CC4=CC(=O)[C@@H]5O[C@@H]5[C@]4(C)[C@H]3CC[C@]12C` registered a melting point of 228 to 230 °C.

With `CC(=NO)[C@H]1CC[C@H]2[C@@H]3[C@@H]4O[C@@H]4C4=CC(=O)C=C[C@]4(C)[C@H]3CC[C@]12C`, the melting point is 245 to 247 °C.

As a reminder, the pIC50 is the IC50 on a negative log10 scale, so that one unit is a factor of ten. As to `CC(=O)[C@H]1CC[C@H]2[C@@H]3CCC4=CC(=O)CC[C@]4(C)[C@H]3CC[C@]12C` [Compound 1, 4-pregnene-3,20-dione, reference compound], the pIC50 in series [1] (setting [2]) and in series [1] (setting [3]) was 8.19 in each case.

As for `CC(=O)[C@H]1CCC2C3CCC(=O)[C@](C)(CCC(=O)O)C3CC[C@@]21C` (stereo partly shown) [Compound 2, 5,20-Dioxo-A-nor-3,5-secopregnane-3-oic acid], the melting point is 176 to 178 °C. Also, the “5α-reductase inhibitory activity in words” value in series [1] (setting [4]) is given as “only a weak inhibitory activity”. Further, in series [1] (setting [3]), the pIC50 was under 5.00.

For the molecule `CC(=O)[C@H]1CC[C@H]2[C@@H]3CC=C4NC(=O)CC[C@]4(C)[C@H]3CC[C@]12C` [Compound 3, 4-Aza-5-pregnene-3,20-dione], the melting point is 158 to 160 °C. Further, the “5α-reductase inhibitory activity in words” value in series [1] (setting [4]) is reported as “moderate inhibition”. The pIC50 in series [1] (setting [3]) is 5.64.

For the molecule `CC(=NO)[C@H]1CC[C@H]2[C@@H]3CC=C4NC(=O)CC[C@]4(C)[C@H]3CC[C@]12C` [Compound 4, 4-Aza-5-pregnene-3,20-dione-20-oxime], the melting point was 208 to 210 °C. Also, the “5α-reductase inhibitory activity in words” value in series [1] (setting [4]) was “potent inhibition”. Further, in series [1] (setting [2]), the negative-log IC50 (pIC50) is 7.59. In addition, the pIC50 in series [1] (setting [3]) was 7.59.

Consider `CC(=O)[C@H]1CC[C@H]2[C@@H]3CCC4NC(=O)CC[C@]4(C)[C@H]3CC[C@]12C` (stereo partly shown) [Compound 5, 4-Aza-pregnane-3,20-dione], for which the “5α-reductase inhibitory activity in words” value in series [1] (setting [4]) is reported as “potent inhibition”. Further, the pIC50 in series [1] (setting [3]) was 5.21.

The molecule `CC(=NO)[C@H]1CC[C@H]2[C@@H]3CCC4NC(=O)CC[C@]4(C)[C@H]3CC[C@]12C` (stereo partly shown) [Compound 6, 4-Aza-pregnane-3,20-dione-20-oxime] showed a melting point of 194 to 196 °C. Moreover, the “5α-reductase inhibitory activity in words” value in series [1] (setting [4]) was “potent inhibition”. For the same molecule, the pIC50 in series [1] (setting [2]) is 8.00. For the same molecule, the pIC50 in series [1] (setting [3]) was 8.00.

As for `CC(=O)[C@H]1CC[C@H]2[C@@H]3CCC4NC(=O)C=C[C@]4(C)[C@H]3CC[C@]12C` (stereo partly shown) [Compound 7, 4-Aza-1-pregnene-3,20-dione], the melting point lay in the range of 174 to 176 °C. Further, in series [1] (setting [4]), the “5α-reductase inhibitory activity in words” value was “potent inhibition”. Further, the pIC50 in series [1] (setting [3]) was 7.85.

As for `CC(=NO)[C@H]1CC[C@H]2[C@@H]3CCC4NC(=O)C=C[C@]4(C)[C@H]3CC[C@]12C` (stereo partly shown) [Compound 8, 4-Aza-1-pregnene-3,20-dione-20-oxime], the melting point is 235 to 237 °C. Besides, the “5α-reductase inhibitory activity in words” value in series [1] (setting [4]) is “potent inhibition”. The pIC50 in series [1] (setting [2]) was 7.96. For the same molecule, the pIC50 in series [1] (setting [3]) is 7.96.

The molecule `CC(=O)[C@H]1CC[C@H]2[C@@H]3C=CC4=CC(=O)C=C[C@]4(C)[C@H]3CC[C@]12C` [Compound 9, 1,4,6-Pregnatriene-3,20-dione] registered a melting point of 144 to 146 °C. The “5α-reductase inhibitory activity in words” value in series [1] (setting [4]) is “moderate inhibition”. In addition, the negative logarithm of the IC50 (pIC50) in series [1] (setting [3]) was 6.12.

Molecule `CC(=O)[C@H]1CC[C@H]2[C@@H]3C=CC4=CC(=O)[C@@H]5O[C@@H]5[C@]4(C)[C@H]3CC[C@]12C` [Compound 10, 1α,2α-Epoxypregna-4,6-diene-3,20-dione] came in with a melting point of 183 to 185 °C. For the same molecule, the “5α-reductase inhibitory activity in words” value in series [1] (setting [4]) is given as “no inhibitory activity”. In addition, the pIC50 in series [1] (setting [3]) is under 5.00.

On to `CC(=O)[C@H]1CC[C@H]2[C@@H]3[C@@H]4O[C@@H]4C4=CC(=O)C=C[C@]4(C)[C@H]3CC[C@]12C` [Compound 13, 6α,7α-Epoxypregna-1,4-diene-3,20-dione], for which the melting point lay within 206 to 208 °C. In addition, the “5α-reductase inhibitory activity in words” value in series [1] (setting [4]) is listed as “no inhibitory activity”. The pIC50 in series [1] (setting [3]) is under 5.00.

With `CC(=O)O[C@H]1CC[C@@]2(C)C(=CCC3C2CC[C@@]2(C)C3CC[C@@H]2C(C)=O)C1` (stereo partly drawn) [Compound 15, 3β-Acetoxypregnenolone], the “5α-reductase inhibitory activity in words” value in series [1] (setting [4]) is recorded as “no inhibition”. In addition, the pIC50 in series [1] (setting [3]) was under 5.00.

Turning to `CC(=O)O[C@H]1CC[C@@]2(C)C(=CCC3C2CC[C@@]2(C)C3CC[C@@H]2C(C)=NO)C1` (stereo partly shown) [Compound 16], the “5α-reductase inhibitory activity in words” value in series [1] (setting [4]) is listed as “no inhibition”. In addition, the pIC50 in series [1] (setting [3]) was under 5.00.

Turning to `CC(=O)C1CCC2C3CC4OC45CC(O)CCC5(C)C3CCC12C` (stereo not shown) [Compound 17], the “5α-reductase inhibitory activity in words” value in series [1] (setting [4]) is “no inhibition”. In addition, the pIC50 in series [1] (setting [3]) is under 5.00.

For `CC(=NO)C1CCC2C3CC4OC45CC(O)CCC5(C)C3CCC12C` (stereo not shown) [Compound 18], in series [1] (setting [4]), the “5α-reductase inhibitory activity in words” value is “no inhibition”. For the same molecule, the pIC50 in series [1] (setting [3]) was under 5.00.

For the molecule `CC(=NO)[C@H]1CCC2C3CCC4=CC(=O)CC[C@]4(C)C3CC[C@@]21C` (stereo partly shown) [Compound 20], the pIC50 in series [1] (setting [3]) is 7.85.

For the molecule `CC(=NO)[C@H]1CCC2C3CCC(=O)[C@](C)(CCC(=O)O)C3CC[C@@]21C` (stereo partly shown) [Compound 21], the pIC50 in series [1] (setting [3]) was 5.68.

On to `CC(=NO)[C@H]1CCC2C3CCC4=CC(=O)C=C[C@]4(C)C3CC[C@@]21C` (stereo partly shown) [Compound 22, 1,4-Pregnadiene-20-oxime], for which the pIC50 in series [1] (setting [3]) was 6.85.

Regarding `CC(C)(C)NC(=O)[C@H]1CC[C@H]2[C@@H]3CC[C@H]4NC(=O)C=C[C@]4(C)[C@H]3CC[C@]12C` [Finasteride, finasteride, reference compound], the pIC50 in series [1] (setting [2]) and in series [1] (setting [3]) was 8.92 in each case.
